The subject of assay [1] is HCN2 over-expressing cell culture. Nature of the assay: Spontaneous rate (action potential recording) of AdHCN2 infected culture during drug superfusion. It counts as cell-based, rat. To be noted: for spontaneous rate during drug exposure: AdHCN2 infected culture, same culture during superfusion with drug, control records: 48 (isoproterenol), 54 (carbachol), 96 (ZD-7288) beats/min; for effect on heart rate of the culture (in words): HCN2 over-expressing cell culture. From the text: Adult rats were anesthetized with ketamine-xylazine before cardiectomy, and neonatal rats decapitated, in accordance with the Institutional Animal Care and Use Committee protocols of Columbia University. For preparing cell cultures of newborn ventricles, a standard trypsin dissociation method was employed (21). The cells were preplated to reduce fibroblast proliferation, cultured initially in serum-containing medium (except when being transfected with plasmids as described below) and then switched to a serum free medium (SFM) after 24 hours. Action potential studies were conducted on 4 day old monolayer cultures plated directly onto fibronectin coated 9×22 mm glass coverslips. For voltage clamp experiments, 4–6 day old monolayer cultures were resuspended by brief (2–3 min) exposure to 0.25% trypsin, then the cells replated onto fibronectin-coated coverslips and studied within 2–8 hours.
For adult rat ventricular myocytes, AdHCN2 infection was carried out 2–3 hours after the isolated cells were plated onto coverslips. For neonatal cells, the infection was done on the monolayer culture 1–3 days after plating. In either case, the culture medium was removed from the dishes (35-mm) and the inoculum of 0.2–0.3 ml/dish was added containing AdHCN2. The value of m.o.i. (multiplicity of infection—the ratio of viral units to cells) was 15–100. The inoculum was dispersed over the cells every 20 min by gently “tilting” the dishes so that the cells were evenly exposed to the viral particles. The dishes were kept at 37° C. in a CO2 incubator during the adsorption period of two hours, then the inoculum was discarded and the dishes were washed and refilled with the appropriate culture medium. The dishes remained in the incubator for 24–48 hours before electrophysiological experiments were conducted. In some experiments, an adenoviral construct for GFP (AdGFP) was employed.
The whole-cell voltage clamp technique was employed to record native If or expressed IHCN2 or IHCN4. Action potentials were recorded in current clamp mode, again using a whole cell patch electrode/Experiments were carried out on cells supervised at 35° C. Extracellular solution contained (mmol/L): NaCl, 140; NaOH, 2.3; MgCl2, 1; KCl, 5.4; CaCl2, 1.0; HEPES, 5; glucose, 10; pH 7.4. To record from myocytes expressing native currents (If) myocytes expressing HCN2 (IHCN2) or HCN4 (IHCN4), [K^+]0 was increased to 10 mmol/L, and MnCl2 (2 mmol/L) and BaCl2 (4 mmol/L) added to the superfusate to eliminate calcium and inward rectifier (IK1) currents. In some experiments CsCl (4 mmol/L) was used extracellularly to identify the pacemaker current as the Cs-sensitive current. The patch pipette solution included (mmol/L): aspartic acid, 130; KOH, 146; NaCl, 10; CaCl2, 2; EGTA-KOH, 5; Mg-ATP, 2; HEPES-KOH, 10, pH 7.2. Where indicated, 10 μmol/L cAMP was included in the pipette solution. A fast solution changing apparatus expedited the experimental protocols. The pipette resistance was typically […]. An Axopatch-200B amplifier and pClampS software (Axon Instruments) were used for acquisition and data analysis. The pacemaker current (If, IHCN2 or IHCN4) was defined as the time-dependent component taken at the end of a hyperpolarizing step to voltages in the range of −35 to −145 mV, while the holding potential was −35 mV unless otherwise indicated. For If and IHCN2 measurements, the hyperpolarizing test pulses were 3 or 6 sec long throughout the voltage range. To accurately record steady-state currents for the more slowly activating IHCN4, the test voltages varied in length from 6 sec at −125 mV to as long as 60 sec at −55 mV. When recording tail currents, the test pulses were followed by an 8-sec voltage step to −125 mV. In all pacemaker current protocols, each episode ended with a pulse to −5 mV for 0.5 sec to insure full deactivation.
The normal cardiac pacemaker beats independently but is regulated by neurotransmitters released from sympathetic and parasympathetic neurons. […]

In a further assay the test system is native pacemaker current. The note with it: sinus node; cited from earlier work.
In another assay the target is T1, expressed HCN2 current (Mus musculus, UniProt O88703).
T1 construct: expressed in transfected cells; host or cells: neonatal and adult rat ventricular myocytes in primary culture, infected with adenovirus AdHCN2 (or lipofectin-transfected with pCI-mHCN2)
T1 sequence (O88703 1-863): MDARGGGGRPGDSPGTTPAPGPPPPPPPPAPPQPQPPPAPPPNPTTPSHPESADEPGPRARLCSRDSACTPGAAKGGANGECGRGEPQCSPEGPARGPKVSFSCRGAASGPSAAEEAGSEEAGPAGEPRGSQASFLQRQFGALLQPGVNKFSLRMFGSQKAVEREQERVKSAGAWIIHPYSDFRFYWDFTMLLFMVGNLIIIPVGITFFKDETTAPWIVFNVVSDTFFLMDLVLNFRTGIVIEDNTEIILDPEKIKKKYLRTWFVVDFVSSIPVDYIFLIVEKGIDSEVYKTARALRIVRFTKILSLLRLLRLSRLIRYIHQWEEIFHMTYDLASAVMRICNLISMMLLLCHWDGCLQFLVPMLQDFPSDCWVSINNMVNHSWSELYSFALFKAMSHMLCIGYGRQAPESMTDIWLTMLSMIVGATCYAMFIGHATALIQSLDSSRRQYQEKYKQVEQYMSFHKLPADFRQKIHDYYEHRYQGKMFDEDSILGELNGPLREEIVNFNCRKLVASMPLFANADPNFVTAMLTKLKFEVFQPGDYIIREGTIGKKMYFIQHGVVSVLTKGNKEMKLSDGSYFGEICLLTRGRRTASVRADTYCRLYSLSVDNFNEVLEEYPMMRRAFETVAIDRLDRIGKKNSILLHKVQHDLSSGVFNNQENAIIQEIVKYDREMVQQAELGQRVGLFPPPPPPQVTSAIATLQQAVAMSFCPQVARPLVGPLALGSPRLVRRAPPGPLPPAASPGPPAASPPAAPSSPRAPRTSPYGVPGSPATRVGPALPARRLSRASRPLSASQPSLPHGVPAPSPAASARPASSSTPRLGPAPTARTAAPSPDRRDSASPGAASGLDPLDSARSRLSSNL
As to the kind of experiment: Whole-cell voltage clamp: shift of the activation relation of expressed HCN2 current in ventricular myocytes. It is filed as cell-based. To be noted: for shift of the voltage dependence of HCN2: saturating cAMP (10 μmol/L) in the pipette.

Each structure is given as a SMILES string.

Description for expressed HCN2 current: The whole-cell voltage clamp technique was employed to record native If or expressed IHCN2 or IHCN4. Action potentials were recorded in current clamp mode, again using a whole cell patch electrode/Experiments were carried out on cells supervised at 35° C. Extracellular solution contained (mmol/L): NaCl, 140; NaOH, 2.3; MgCl2, 1; KCl, 5.4; CaCl2, 1.0; HEPES, 5; glucose, 10; pH 7.4. […] In some experiments CsCl (4 mmol/L) was used extracellularly to identify the pacemaker current as the Cs-sensitive current. […] Where indicated, 10 μmol/L cAMP was included in the pipette solution. A fast solution changing apparatus expedited the experimental protocols. The pipette resistance was typically 1–3 M. An Axopatch-200B amplifier and pClampS software (Axon Instruments) were used for acquisition and data analysis. […] For If and IHCN2 measurements, the hyperpolarizing test pulses were 3 or 6 sec long throughout the voltage range. […] In all pacemaker current protocols, each episode ended with a pulse to −5 mV for 0.5 sec to insure full deactivation.
The activation relation of the native or expressed current can be determined from the steady-state I-V relation.

Turning to `CC(C)NCC(O)c1ccc(O)c(O)c1` (stereo not shown) [isoproterenol], in assay [1], the “spontaneous rate during drug exposure” value stood at 63 beats/min and the “effect on heart rate of the culture (in words)” value (from here on “effect on heart rate”) is recorded as “increase in heart rate”. For the same compound, in the assay on native pacemaker current, the “threshold concentration on native pacemaker current” value was “approximately 1 nM”. Besides, the “positive shift of the activation curve of expressed HCN2 current” value on expressed HCN2 current (threshold concentration of isoproterenol, neonatal ventricular myocyte, two-step voltage protocol, one cell) was “approximately 5 mV”.

For `C[N+](C)(C)CCOC(N)=O` [carbachol], in assay [1], the “spontaneous rate during drug exposure” value is given as 45 beats/min and the “effect on heart rate” value is “decrease in heart rate”.

Turning to `Nc1ncnc2c1ncn2[C@@H]1O[C@@H]2COP(=O)(O)O[C@H]2[C@H]1O` [cAMP, cyclic adenosine monophosphate], the “shift of the voltage dependence of HCN2” value was determined as 14 mV at expressed HCN2 current (adult myocytes infected with AdHCN2) and 17 mV on expressed HCN2 current (neonate myocytes infected with AdHCN2).

Consider `CCN(c1ccccc1)c1cc(=NC)n(C)c(C)n1.Cl` [ZD-7288], for which, in assay [1], the “spontaneous rate during drug exposure” value is recorded as 78 beats/min and the “effect on heart rate” value is “slows the rate”.

These data come from patent publication US7122307B2, “High throughput biological heart rate monitor that is molecularly determined” (The Trustees of Columbia University in the City of New York, priority 2001, dated 2006).
